In ChEMBL document CHEMBL1201862, “PubChem BioAssay data set” (2004):
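1) Cells in 96-well plates. 2) Compound, 48 h, 5 concentrations. 3) Linear interpolation between surrounding doses. 4) Unreached endpoint = highest concentration. Abbreviation: GI50, concentration required for 50% inhibition of growth.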 Active and inactive are the calls of the source. No stated cut-off is given here; in the data, active = GI50 up to about 1.1 µM and inactive = higher.

Tests used:
Experiment in all cases: NCI tumour cell line growth inhibition, 48 h
RPMI-8226 = system: RPMI-8226
MOLT-4 = system: MOLT-4
MDA-MB-231 = system: MDA-MB-231
786-0 = system: 786-0
OVCAR-8 = system: OVCAR-8
CAKI-1 = system: CAKI-1
SF-268 = system: SF-268
UACC-257 = system: UACC-257
HT-29 = system: HT-29
A549 = system: A549
HCT-15 = system: HCT-15
EKVX = system: EKVX
RXF 393 = system: RXF 393
SF-295 = system: SF-295
T47D = system: T47D
CCRF-CEM = system: CCRF-CEM
MCF7 = system: MCF7
SN12C = system: SN12C
UACC-62 = system: UACC-62
PC-3 = system: PC-3
KM12 = system: KM12
SW-620 = system: SW-620
K562 = system: K562
SNB-75 = system: SNB-75
SK-MEL-5 = system: SK-MEL-5
LOX IMVI = system: LOX IMVI
HOP-62 = system: HOP-62
M14 = system: M14
SK-MEL-28 = system: SK-MEL-28
NCI-H23 = system: NCI-H23
HCC 2998 = system: HCC 2998
Malme-3M = system: Malme-3M
SR = system: SR
DU-145 = system: DU-145
IGROV-1 = system: IGROV-1
MDA-N = system: MDA-N
TK-10 = system: TK-10
HL-60 = system: HL-60
SK-OV-3 = system: SK-OV-3
UO-31 = system: UO-31
SNB-19 = system: SNB-19
OVCAR-5 = system: OVCAR-5
COLO 205 = system: COLO 205
SF-539 = system: SF-539
NCI/ADR-RES = system: NCI/ADR-RES
SK-MEL-2 = system: SK-MEL-2
HCT-116 = system: HCT-116
NCI-H226 = system: NCI-H226
NCI-H522 = system: NCI-H522
U-251 = system: U-251
MDA-MB-435 = system: MDA-MB-435
OVCAR-4 = system: OVCAR-4
A498 = system: A498
OVCAR-3 = system: OVCAR-3
HOP-92 = system: HOP-92

## CSc1nc(C)c(CCOC(C)=O)c(N=P(c2ccccc2)(c2ccccc2)c2ccccc2)n1
RPMI-8226
  GI50: 3.14 µM (inactive)
MOLT-4
  GI50: 2.11 µM (inactive)
MDA-MB-231
  GI50: 6.56 µM (inactive)
786-0
  GI50: > 10 µM (inactive)
OVCAR-8
  GI50: 4.88 µM (inactive)
CAKI-1
  GI50: 8.26 µM (inactive)
SF-268
  GI50: 4.12 µM (inactive)
UACC-257
  GI50: 6.18 µM (inactive)
HT-29
  GI50: 4.07 µM (inactive)
A549
  GI50: 5.12 µM (inactive)
HCT-15
  GI50: 4.89 µM
EKVX
  GI50: > 10 µM (inactive)
RXF 393
  GI50: 2.89 µM (inactive)
SF-295
  GI50: > 10 µM (inactive)
T47D
  GI50: 4.24 µM (inactive)
CCRF-CEM
  GI50: 3.89 µM (inactive)
MCF7
  GI50: 3.49 µM (inactive)
SN12C
  GI50: 6.78 µM (inactive)
UACC-62
  GI50: 5.75 µM (inactive)
PC-3
  GI50: 2.53 µM (inactive)
KM12
  GI50: 3.72 µM (inactive)
SW-620
  GI50: 4.97 µM (inactive)
K562
  GI50: 3.42 µM (inactive)
SNB-75
  GI50: 4.28 µM (inactive)
SK-MEL-5
  GI50: 6.81 µM (inactive)
LOX IMVI
  GI50: 1.33 µM (inactive)
HOP-62
  GI50: 7.94 µM (inactive)
M14
  GI50: 5.61 µM (inactive)
SK-MEL-28
  GI50: > 10 µM (inactive)
NCI-H23
  GI50: 3.77 µM (inactive)
HCC 2998
  GI50: > 10 µM (inactive)
Malme-3M
  GI50: > 10 µM (inactive)
SR
  GI50: 2.54 µM (inactive)
DU-145
  GI50: > 10 µM (inactive)
IGROV-1
  GI50: > 10 µM (inactive)
MDA-N
  GI50: 4.05 µM (inactive)
TK-10
  GI50: > 10 µM (inactive)
HL-60
  GI50: 2.82 µM (inactive)
SK-OV-3
  GI50: > 10 µM (inactive)

## CCOC(=O)c1c(-c2ccc(OC)cc2)c(C#N)c(=S)n(C2OC(CO)C(O)C(O)C2O)c1C (configuration not stated)
UO-31
  GI50: > 100 µM (inactive)
SNB-19
  GI50: > 100 µM (inactive)
OVCAR-5
  GI50: > 100 µM (inactive)
MOLT-4
  GI50: > 100 µM (inactive)
COLO 205
  GI50: > 100 µM (inactive)
SF-539
  GI50: > 100 µM (inactive)
MDA-MB-231
  GI50: > 100 µM (inactive)
786-0
  GI50: > 100 µM (inactive)
OVCAR-8
  GI50: > 100 µM (inactive)
CAKI-1
  GI50: 87.7 µM (inactive)
SF-268
  GI50: > 100 µM (inactive)
NCI/ADR-RES
  GI50: > 100 µM (inactive)
UACC-257
  GI50: > 100 µM (inactive)
HT-29
  GI50: > 100 µM (inactive)
A549
  GI50: > 100 µM (inactive)
HCT-15
  GI50: > 100 µM
EKVX
  GI50: > 100 µM (inactive)
RXF 393
  GI50: > 100 µM (inactive)
SF-295
  GI50: > 100 µM (inactive)
T47D
  GI50: > 100 µM (inactive)
SK-MEL-2
  GI50: > 100 µM (inactive)
CCRF-CEM
  GI50: > 100 µM (inactive)
MCF7
  GI50: > 100 µM (inactive)
SN12C
  GI50: > 100 µM (inactive)
HCT-116
  GI50: > 100 µM (inactive)
PC-3
  GI50: > 100 µM (inactive)
KM12
  GI50: > 100 µM (inactive)
SW-620
  GI50: > 100 µM (inactive)
K562
  GI50: > 100 µM (inactive)
SNB-75
  GI50: > 100 µM (inactive)
NCI-H226
  GI50: > 100 µM (inactive)
SK-MEL-5
  GI50: > 100 µM (inactive)
NCI-H522
  GI50: > 100 µM (inactive)
LOX IMVI
  GI50: > 100 µM (inactive)
U-251
  GI50: > 100 µM (inactive)
HOP-62
  GI50: > 100 µM (inactive)
M14
  GI50: > 100 µM (inactive)
SK-MEL-28
  GI50: > 100 µM (inactive)
NCI-H23
  GI50: > 100 µM (inactive)
HCC 2998
  GI50: > 100 µM (inactive)
Malme-3M
  GI50: > 100 µM (inactive)
SR
  GI50: > 100 µM (inactive)
MDA-MB-435
  GI50: > 100 µM (inactive)
DU-145
  GI50: > 100 µM (inactive)
IGROV-1
  GI50: > 100 µM (inactive)
MDA-N
  GI50: > 100 µM (inactive)
OVCAR-4
  GI50: > 100 µM (inactive)
TK-10
  GI50: > 100 µM (inactive)
A498
  GI50: > 100 µM (inactive)
OVCAR-3
  GI50: > 100 µM (inactive)
HL-60
  GI50: > 100 µM (inactive)
HOP-92
  GI50: > 100 µM (inactive)
SK-OV-3
  GI50: > 100 µM (inactive)
